# Data: US10294248B2, “Beta-lactamase inhibitors” (VenatoRx Pharmaceuticals, Inc., priority 2013, dated 2019)
# What was measured:
# [1] = tested on: P. aeruginosa Ps296 expressing VIM-2; assay: Broth microdilution MIC, P. aeruginosa Ps296 VIM-2; assay type: cell-based; settings: fixed 4 μg/mL meropenem; CAMHB, 16-20 hours at 37° C.
# Procedure, shortened: (§1)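 Potentiation MICs in CAMHB, with test compound at 32–0.25 μg/mL final alongside a β-lactam held at a fixed 4 μg/mL final. Strains pre-grown 3–5 h and inoculated per CLSI broth microdilution, then incubated 16–20 h at 37° C. MIC read visually.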
# [2] = biological target: T1, p99 AmpC β-lactamase (Class C) (Enterobacter cloacae, UniProt P05364); assay: β-Lactamase inhibition, p99 AmpC; assay type: biochemical
# T1 construct: made in house; host or cells: E. coli BL21(DE3)
# T1 sequence (P05364 21-381): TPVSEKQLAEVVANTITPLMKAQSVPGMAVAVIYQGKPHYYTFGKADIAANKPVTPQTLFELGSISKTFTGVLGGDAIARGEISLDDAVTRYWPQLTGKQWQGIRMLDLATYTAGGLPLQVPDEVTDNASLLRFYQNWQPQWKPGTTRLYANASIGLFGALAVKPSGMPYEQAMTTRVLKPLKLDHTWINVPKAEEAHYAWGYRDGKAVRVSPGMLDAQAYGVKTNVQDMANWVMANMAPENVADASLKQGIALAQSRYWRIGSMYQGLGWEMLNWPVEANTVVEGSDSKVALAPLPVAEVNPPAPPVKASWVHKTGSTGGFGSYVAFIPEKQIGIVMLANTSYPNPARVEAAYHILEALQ
# [3] = biological target: T2, SHV-5 β-lactamase (Class A ESBL) (Klebsiella pneumoniae, UniProt P0A3M1); assay: β-Lactamase inhibition, SHV-5; assay type: biochemical
# T2 construct: made in house; host or cells: E. coli BL21(DE3)
# T2 sequence (P0A3M1 22-286): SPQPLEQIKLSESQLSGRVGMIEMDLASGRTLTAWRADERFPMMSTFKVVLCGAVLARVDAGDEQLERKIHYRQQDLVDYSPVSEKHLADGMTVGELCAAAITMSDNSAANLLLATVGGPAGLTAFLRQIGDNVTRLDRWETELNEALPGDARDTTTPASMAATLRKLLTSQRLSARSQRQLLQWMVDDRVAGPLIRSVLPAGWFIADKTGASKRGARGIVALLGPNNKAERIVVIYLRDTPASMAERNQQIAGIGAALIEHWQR
# Procedure, shortened: (§2)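 Native untagged β-lactamases were expressed in E. coli BL21(DE3), then purified by cation exchange and gel filtration. Enzyme was preincubated with inhibitor for 15 min at 37 °C before substrate was added. Imipenem (A300) served KPC-2 and cefotaxime (A260) served SHV-5. IC50 was taken from initial hydrolysis rates relative to no-inhibitor controls.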
# [4] = tested on: S. aureus MSSA-7 producing penicillinase PC-1; assay: Broth microdilution MIC, S. aureus MSSA-7 PC-1; assay type: cell-based; settings: fixed 4 μg/mL piperacillin; CAMHB, 16-20 hours at 37° C.
# Procedure, shortened: as §1
# [5] = tested on: K. pneumoniae 156319 expressing KPC-3; assay: Broth microdilution MIC, K. pneumoniae 156319 KPC-3; assay type: cell-based; settings: fixed 4 μg/mL meropenem; CAMHB, 16-20 hours at 37° C.
# Procedure, shortened: as §1
# [6] = biological target: T3, KPC-2 β-lactamase (Class A carbapenemase) (Klebsiella pneumoniae, UniProt Q9F663); assay: β-Lactamase inhibition, KPC-2; assay type: biochemical; settings: imipenem substrate, 300 nm; 15 min preincubation at 37° C., PBS pH 7.4
# T3 construct: made in house; host or cells: E. coli BL21(DE3)
# T3 sequence (Q9F663 25-293, looked up): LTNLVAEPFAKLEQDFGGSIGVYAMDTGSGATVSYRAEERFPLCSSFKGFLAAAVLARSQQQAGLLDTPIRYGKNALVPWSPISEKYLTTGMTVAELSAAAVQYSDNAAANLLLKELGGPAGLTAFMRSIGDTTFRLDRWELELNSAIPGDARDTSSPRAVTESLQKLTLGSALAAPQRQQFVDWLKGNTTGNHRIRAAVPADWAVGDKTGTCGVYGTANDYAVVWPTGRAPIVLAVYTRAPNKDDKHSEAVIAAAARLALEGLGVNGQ
# Procedure, shortened: as §2
# [7] = biological target: T4, OXA-1 β-lactamase (Class D oxacillinase) (Escherichia coli, UniProt P13661); assay: β-Lactamase inhibition, OXA-1; assay type: biochemical; settings: nitrocefin 100 μM, 486 nm; 15 min preincubation at 37° C., PBS pH 7.4
# T4 construct: made in house; host or cells: E. coli BL21(DE3)
# T4 sequence (P13661 26-276): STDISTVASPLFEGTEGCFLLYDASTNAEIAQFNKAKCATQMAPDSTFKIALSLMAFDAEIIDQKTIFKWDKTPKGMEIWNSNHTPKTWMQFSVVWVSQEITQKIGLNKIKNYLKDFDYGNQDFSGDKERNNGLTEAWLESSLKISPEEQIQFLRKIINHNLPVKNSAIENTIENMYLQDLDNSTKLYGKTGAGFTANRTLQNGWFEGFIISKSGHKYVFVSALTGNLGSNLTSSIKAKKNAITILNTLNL
# Procedure, shortened: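 Untagged enzyme from E. coli BL21(DE3), purified by Capto S then Superdex 75; 15 min 37 °C preincubation with inhibitor; KPC-2 read with imipenem at 300 nm, SHV-5 with cefotaxime at 260 nm, OXA-1 with nitrocefin 100 μM final at 486 nm; 10 min kinetic read; IC50 vs uninhibited wells.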
# [8] = tested on: E. cloacae 144200 expressing Class C P99 AmpC; assay: Broth microdilution MIC, E. cloacae 144200 p99 AmpC; assay type: cell-based; settings: fixed 4 μg/mL ceftazidime; CAMHB, 16-20 hours at 37° C.
# Procedure, shortened: as §1
# [9] = tested on: E. coli ESBL4 expressing CTX-M-15; assay: Broth microdilution MIC, E. coli ESBL4 CTX-M-15; assay type: cell-based; settings: fixed 4 μg/mL ceftazidime; CAMHB, 16-20 hours at 37° C.
# Procedure, shortened: as §1
# [10] = biological target: T5, VIM-2 metallo-β-lactamase (Class B) (Pseudomonas aeruginosa, UniProt Q9K2N0); assay: β-Lactamase inhibition, VIM-2; assay type: biochemical; settings: nitrocefin 100 μM, 486 nm; 15 min preincubation at 37° C., PBS pH 7.4
# T5 construct: made in house; host or cells: E. coli BL21(DE3)
# Procedure, shortened: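 Purified VIM-2 preincubated with inhibitor for 15 min at 37° C, then nitrocefin (100 μM final) added and absorbance at 486 nm followed for 10 min. Maximum hydrolysis rates compared with inhibitor-free controls; IC50 fitted from percent inhibition across inhibitor concentrations.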
# [11] = tested on: K. pneumoniae A-1797 expressing KPC-2 and VIM-4; assay: Broth microdilution MIC, K. pneumoniae A-1797 KPC-2/VIM-4; assay type: cell-based; settings: fixed 4 μg/mL meropenem; CAMHB, 16-20 hours at 37° C.
# Procedure, shortened: as §1
Structure (SMILES),"MIC of example compound in presence of fixed β-lactam: Fixed Mero, P. aerug. Ps296 VIM-2 [1]",IC50 [2] [nM],IC50 [3] [nM],"MIC of example compound in presence of fixed β-lactam: Fixed Pip, S. aureus MSSA-7 PC-1 [4]","MIC of example compound in presence of fixed β-lactam: Fixed Mero, K. P. 156319 KPC-3 [5]",IC50 [6] [nM],IC50 [7] [nM],"MIC of example compound in presence of fixed β-lactam: Fixed CAZ, E. cl. 144200 p99 AmpC [8]","MIC of example compound in presence of fixed β-lactam: Fixed CAZ, E. coli ESBL4 CTX-M-15 [9]",IC50 [10] [µM],"MIC of example compound in presence of fixed β-lactam: Fixed Mero, K. P. A-1797 KPC-2 VIM-4 [11]"
"NCCN1CCC(CC(=O)N[C@H]2Cc3cccc(C(=O)O)c3OB2O)CC1 [Example 41, 3-{2-[1-(2-Amino-ethyl)-piperidin-4-yl]-acetylamino}-2-hydroxy-3,4-dihydro-2H-benzo[e][1,2]oxaborinine-8-carboxylic acid]",C (the MIC in the presence of <4 μg/mL of a β-lactamase inhibitor),< 100,< 100,C (the MIC in the presence of <4 μg/mL of a β-lactamase inhibitor),C (the MIC in the presence of <4 μg/mL of a β-lactamase inhibitor),< 100,< 100,C (the MIC in the presence of <4 μg/mL of a β-lactamase inhibitor),C (the MIC in the presence of <4 μg/mL of a β-lactamase inhibitor),0.1 to 1,C (the MIC in the presence of <4 μg/mL of a β-lactamase inhibitor)
"NC1CCN(CC(=O)N[C@H]2Cc3cccc(C(=O)O)c3OB2O)CC1O (some centres unmarked) [Example 24, 3-[2-(4-Amino-3-hydroxy-piperidin-1-yl)-acetylamino]-2-hydroxy-3,4-dihydro-2H-benzo[e][1,2]oxaborinine-8-carboxylic acid]",B (the MIC in the presence of between 8 and 32 μg/mL of a β-lactamase inhibitor),< 100,100 to 1000,C (the MIC in the presence of <4 μg/mL of a β-lactamase inhibitor),B (the MIC in the presence of between 8 and 32 μg/mL of a β-lactamase inhibitor),100 to 1000,100 to 1000,C (the MIC in the presence of <4 μg/mL of a β-lactamase inhibitor),C (the MIC in the presence of <4 μg/mL of a β-lactamase inhibitor),10 to 100,B (the MIC in the presence of between 8 and 32 μg/mL of a β-lactamase inhibitor)
"NC1(C(=O)N[C@H]2Cc3cccc(C(=O)O)c3OB2O)CCNCC1 [Example 49, 3-[(4-Amino-piperidine-4-carbonyl)-amino]-2-hydroxy-3,4-dihydro-2H-benzo[e][1,2]oxaborinine-8-carboxylic acid]",B (the MIC in the presence of between 8 and 32 μg/mL of a β-lactamase inhibitor),< 100,< 100,C (the MIC in the presence of <4 μg/mL of a β-lactamase inhibitor),C (the MIC in the presence of <4 μg/mL of a β-lactamase inhibitor),< 100,< 100,C (the MIC in the presence of <4 μg/mL of a β-lactamase inhibitor),C (the MIC in the presence of <4 μg/mL of a β-lactamase inhibitor),1 to 10,A (an MIC of the fixed β-lactam antibiotic in the presence of >32 μg/mL of a β-lactamase inhibitor)
"CNC1CCN(CC(=O)N[C@H]2Cc3cccc(C(=O)O)c3OB2O)CC1 [Example 14, 2-Hydroxy-3-[2-(4-methylamino-piperidin-1-yl)-acetylamino]-3,4-dihydro-2H-benzo[e][1,2]oxaborinine-8-carboxylic acid]",B (the MIC in the presence of between 8 and 32 μg/mL of a β-lactamase inhibitor),< 100,100 to 1000,C (the MIC in the presence of <4 μg/mL of a β-lactamase inhibitor),C (the MIC in the presence of <4 μg/mL of a β-lactamase inhibitor),100 to 1000,100 to 1000,C (the MIC in the presence of <4 μg/mL of a β-lactamase inhibitor),C (the MIC in the presence of <4 μg/mL of a β-lactamase inhibitor),1 to 10,B (the MIC in the presence of between 8 and 32 μg/mL of a β-lactamase inhibitor)
"O=C(COC1CCNCC1)N[C@H]1Cc2cccc(C(=O)O)c2OB1O [Example 39, 2-Hydroxy-3-[2-(piperidin-4-yloxy)-acetylamino]-3,4-dihydro-2H-benzo[e][1,2]oxaborinine-8-carboxylic acid]",C (the MIC in the presence of <4 μg/mL of a β-lactamase inhibitor),< 100,100 to 1000,C (the MIC in the presence of <4 μg/mL of a β-lactamase inhibitor),C (the MIC in the presence of <4 μg/mL of a β-lactamase inhibitor),< 100,< 100,C (the MIC in the presence of <4 μg/mL of a β-lactamase inhibitor),C (the MIC in the presence of <4 μg/mL of a β-lactamase inhibitor),0.1 to 1,B (the MIC in the presence of between 8 and 32 μg/mL of a β-lactamase inhibitor)
"N[C@@H]1CCN(CC(=O)N[C@H]2Cc3cccc(C(=O)O)c3OB2O)C1 [Example 6, 3-[2-(R-3-Amino-pyrrolidin-1-yl)-acetylamino]-2-hydroxy-3,4-dihydro-2H-benzo[e][1,2]oxaborinine-8-carboxylic acid]",B (the MIC in the presence of between 8 and 32 μg/mL of a β-lactamase inhibitor),< 100,< 100,A (an MIC of the fixed β-lactam antibiotic in the presence of >32 μg/mL of a β-lactamase inhibitor),C (the MIC in the presence of <4 μg/mL of a β-lactamase inhibitor),100 to 1000,100 to 1000,C (the MIC in the presence of <4 μg/mL of a β-lactamase inhibitor),C (the MIC in the presence of <4 μg/mL of a β-lactamase inhibitor),1 to 10,B (the MIC in the presence of between 8 and 32 μg/mL of a β-lactamase inhibitor)
"NC1CN(CC(=O)N[C@H]2Cc3cccc(C(=O)O)c3OB2O)CCC1O (some centres unmarked) [Example 26, 3-[2-(3-Amino-4-hydroxy-piperidin-1-yl)-acetylamino]-2-hydroxy-3,4-dihydro-2H-benzo[e][1,2]oxaborinine-8-carboxylic acid]",C (the MIC in the presence of <4 μg/mL of a β-lactamase inhibitor),< 100,100 to 1000,A (an MIC of the fixed β-lactam antibiotic in the presence of >32 μg/mL of a β-lactamase inhibitor),C (the MIC in the presence of <4 μg/mL of a β-lactamase inhibitor),100 to 1000,100 to 1000,C (the MIC in the presence of <4 μg/mL of a β-lactamase inhibitor),C (the MIC in the presence of <4 μg/mL of a β-lactamase inhibitor),10 to 100,C (the MIC in the presence of <4 μg/mL of a β-lactamase inhibitor)
